Laboratory results as given in PubChem BioAssay AID179 (DTP/NCI, 2004).
pEC50, pIC50: −log10 of the molar value. Calls of active or inactive are those of the source.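 How the source made its calls: active means compounds giving half or more protection of infected cells from virus-caused growth loss, again on retest; inactive means the rest.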

Test system: CEM cells HIV-1 protection, formazan growth assay
Experiment: NCI AIDS Antiviral Assay
Details: for pIC50: measured here: growth of uninfected CEM cells
Summary of the method: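 Human CEM cells, uninfected and HIV-1-infected, received five drug concentrations, and growth was read by soluble formazan assay. Compounds giving at least 50% protection were retested; reproducible 100% protection defined confirmed active.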

Compound | pEC50 | pIC50 | outcome
CC(=O)OCCCCn1cnc2c(Cl)nc(Nc3ccccc3)nc21 | < 3.70 | < 3.70 | –
CCOC(=O)n1[nH][nH]c2c(c(=O)n(C)c(=O)n2C)n1C(=O)OCC | < 3.70 | < 3.70 | –
O=c1[nH]c(=O)c2[nH]c(=O)[nH]c(=O)c2[nH]1 | < 3.70 | < 3.70 | –
CC[C@@]1(O)C(=O)OCc2c1cc1n(c2=O)Cc2cc3ccccc3nc2-1 | < 7.00 | 7.79 | –
COc1ccc(NC(=O)/C(=C/N2C(=O)/C(=C\C(C)=C\c3ccccc3)SC2=S)C(C)=O)cc1 | < 3.70 | 4.87 | –
N#Cc1ccc(-c2nc3c(N)ncnc3o2)cc1 | < 3.70 | < 3.70 | –
CCC1(c2ccccc2)Sc2ccccc2-n2cccc2C1=O (stereo not given) | 4.74 | 3.81 | –
CC1=C(S(=O)c2ccc(C)cc2)CCC2(CCCCO2)O1 (stereo not given) | < 3.70 | 3.97 | –
CC(Cn1c2c(c3cc(O)ccc31)CCc1ccc(O)cc1-2)N(C)C (stereo not given) | < 3.70 | 4.92 | –
O=C(Oc1cccc2cccnc12)c1ccccc1 | < 3.70 | 4.47 | –
[CH3][Sn]([CH3])([CH3])[O]C(=O)C(O)c1ccccc1 (stereo not given) | – | – | inactive
COC(O)C(=O)c1c2c(cc3c1CCC3)CCC2 (stereo not given) | < 3.70 | 3.76 | –
NC(=O)SCC(=O)Nc1ccc2cccc3c2c1CC3 | – | – | inactive
O=C1CCC(N2C(=O)C3C4CCC(O4)C3C2=O)C(=O)N1 (stereo not given) | < 3.70 | < 3.70 | –
Nc1nn2cnnc2s1 | – | – | inactive
O=C1OCC2=C1C(c1ccc(Cl)cc1)c1cc3c(cc1O2)OCO3 (stereo not given) | < 3.70 | 5.40 | –
O=[N+]([O-])c1ccc2cnn(C[N+]34CN5CN(CN(C5)C3)C4)c2c1 | – | – | inactive
CN(C)CCC(=O)N1C/C(=C\c2ccc(Cl)c(Cl)c2)C(=O)/C(=C/c2ccc(Cl)c(Cl)c2)C1 | < 4.47 | 7.36 | –
O=C(NC1CCCCC1)c1n[nH]nc1Cl | < 3.70 | < 3.70 | –
C/C(=N\NC(=S)N1CC2CCC(CC2)C1)c1nccs1 | < 3.94 | 6.44 | –
Cc1csc2c1-n1cccc1C2=O | < 3.70 | 3.89 | –
CN(C)c1ccc(/C=C(\NC(=O)c2ccccc2)C(=O)Nc2ccccc2C(=O)N/N=C/c2ccc(N(C)C)cc2)cc1 | < 4.60 | < 4.60 | –
O=c1[nH]c(Nc2nc3ccccc3[nH]2)nc(O)c1Cc1ccccc1 | < 3.82 | < 3.82 | –

Compound | pEC50 | pIC50 | outcome
N#Cc1c(C#N)c(-c2cccc([N+](=O)[O-])c2)n(-c2ccccc2)c1N | < 3.70 | 3.85 | –
Cc1c(-c2coc(-c3ccccc3)n2)c(=O)n(-c2ccccc2)n1C | < 3.97 | < 3.97 | –
CCOC(=O)C1N(S(=O)(=O)c2ccc(C)cc2)CCC12c1ccccc1NC2c1ccc(OC)c(OC)c1 (stereo not given) | – | – | inactive
Nc1nnnn1CCCl | < 3.70 | < 3.70 | –
CCOC(=O)c1nnsc1NN | < 3.70 | 3.78 | –
O=C(O)c1cccc(P(=O)(O)O)c1 | < 3.70 | < 3.70 | –
NNC(=S)N/N=C/C(Cl)=C(\Cl)C(=O)O | < 4.55 | < 4.55 | –
C[n+]1c(-c2ccc(/C=N/NC(=O)c3ccc(C(=O)N/N=C/c4ccc(-c5cn6ccccc6[n+]5C)cc4)cc3)cc2)cn2ccccc21 | < 5.41 | 7.65 | –
C=C(CC)C(=O)c1ccc(OCC(=O)O)c(Cl)c1Cl | < 3.70 | 4.36 | inactive
O=P(Nc1ccccc1)(Oc1ccccc1)N(CCCl)CCCl (stereo not given) | < 4.30 | 4.65 | –
Oc1ccc[n+](Cc2ccccc2)c1 | < 3.70 | < 3.70 | –
N#C/C(=C\c1ccc(-c2ccccc2)cc1)C(=O)c1ccccc1 | < 4.08 | 4.56 | –
CC1(COc2ccccc2OCC2(C)CO2)CO1 (stereo not given) | < 3.00 | 4.78 | –
COc1ccc(C23OCCN2C(=O)c2ccccc23)cc1 (stereo not given) | < 3.70 | 4.72 | –
O/N=C/c1cc(I)cc(I)c1O | < 4.18 | 4.47 | –
COc1ccc(/C(=N\N)C2=NNC3(CCCCC3)NN2)cc1 | – | – | inactive
CNS(=O)(=O)NNS(=O)(=O)c1ccccc1 | < 3.03 | < 3.70 | –
Cn1[nH]c2[nH]c(=S)sc(=S)c2c1=O | < 3.70 | < 3.70 | –
CC(C)OP(=O)(OC(C)C)c1nc(-c2ccccc2)n(-c2ccc([N+](=O)[O-])cc2)n1 | < 3.52 | 3.66 | –
COc1ccc(Nc2nc3ccccc3nc2C(=O)O)cc1OC | < 3.70 | 4.07 | –
O=P(c1ccccc1)(c1ccccc1)P(=O)(c1ccccc1)c1ccccc1 | < 3.70 | < 3.70 | –
CCC(C)N(CCN)C(=O)c1cc2ccccc2c(-c2ccccc2Cl)n1 (stereo not given) | – | – | inactive
O=NN(CCCl)C(=O)NC1CCC(=O)NC1=O (stereo not given) | < 3.02 | 3.74 | –

Compound | pEC50 | pIC50 | outcome
Cn1cnc2c1c(=O)n(CCNCCO)c(=O)n2C | < 3.70 | < 3.70 | –
CSc1nc(NC2CCCC2)c2cc[nH]c2n1 | < 3.70 | 4.36 | –
CC(=O)N1CCC2(c3ccccc3N(C(C)=O)C2c2ccc(O)cc2)C1C(=O)O (stereo not given) | – | – | inactive
O=c1[nH]/c(=C/c2ccc3c(c2)OCO3)c(=O)[nH]/c1=C/c1ccc2c(c1)OCO2 | – | – | inactive
C=CCOC1OC(CS(=O)(=O)O)C(O)C(O)C1O (stereo not given) | – | – | inactive
CC(C)[C@H]1CO[C@@H]2O[C@H](C)CC(=O)N21 | < 2.90 | < 2.90 | –
O=S1(=O)c2ccccc2C(c2ccccc2)(c2ccccc2)N1c1ccccc1 | < 4.12 | 4.26 | –
CS(=O)(=O)C1S(=O)(=O)OCCOS1(=O)=O | < 3.05 | < 3.05 | –
O=[N+]([O-])C1(CO)COC(CCc2ccccc2)OC1 (stereo not given) | – | – | inactive
COc1ccc2c(c1)CC[C@@H]1[C@@H]2CC[C@]2(C)/C(=N/OCCN3CCCCC3)CC[C@@H]12 | < 4.70 | 5.50 | –
N/N=C1\CC(c2ccccc2)Oc2ccccc21 (stereo not given) | < 3.70 | 3.74 | –
COC1=CC23CCCN2CCc2cc4c(cc2C3C1O)OCO4 (stereo not given) | – | – | inactive
CSC1(CC(=O)N(C)C)C(=O)Nc2ccccc21 (stereo not given) | < 3.70 | < 3.70 | –
Nc1c(-c2ccc(Cl)cc2Cl)[n+]([O-])c2ccccc2[n+]1[O-] | – | – | inactive
CC(=O)OC(CC1(C)C(C)CCC23COC(=O)C2=CCCC31)c1ccoc1 (stereo not given) | < 4.16 | 4.52 | –
OC[C@H]1S[C@H](c2ccccc2)C[C@H]1O | < 3.70 | < 3.70 | –
O=C1C(Cl)=C(N2CCN(C3=C(Cl)C(=O)c4ccccc4C3=O)CC2)C(=O)c2ccccc21 | < 5.11 | 5.88 | –
Cn1c(=O)oc2cc(C(O)CN3CCN(Cc4ccc5c(c4)OCO5)CC3)ccc21 (stereo not given) | < 3.70 | < 3.70 | –
O=C(CCc1cc(O)ccc1O)OCCc1ccccc1 | < 4.70 | 4.99 | –
N=[N+]=CC(=O)OCC(N)C(=O)O (stereo not given) | < 3.70 | 5.54 | –
OC1CCCCCCCCCCC1SCCCCl (stereo not given) | < 3.70 | < 3.70 | –
c1ccc2c(c1)[nH]c1c(N3CCOCC3)nnc(N3CCOCC3)c12 | < 3.70 | < 3.70 | –
O=C(COC(=O)c1cccc2c(=O)c3ccccc3[nH]c12)Nc1ccc(Cl)cc1 | – | – | inactive
